Assay results: PMC10043345, “Discovery of BAR502, as potent steroidal antagonist of leukemia inhibitory factor receptor for the treatment of pancreatic adenocarcinoma” (Frontiers in Oncology, 2023)

Tests used:
[1] = biological target: T1, hLIFR (Homo sapiens, UniProt P42702); test: STAT3 transactivation in HepG2 cells transfected with hLIFR and CD130, stimulated with LIF; format: cell-based; settings: LIF 10 ng/mL, read-out: HepG2 LIFR Antagonism IC50 (STAT3 transactivation)
T1 sequence (P42702 45-1097): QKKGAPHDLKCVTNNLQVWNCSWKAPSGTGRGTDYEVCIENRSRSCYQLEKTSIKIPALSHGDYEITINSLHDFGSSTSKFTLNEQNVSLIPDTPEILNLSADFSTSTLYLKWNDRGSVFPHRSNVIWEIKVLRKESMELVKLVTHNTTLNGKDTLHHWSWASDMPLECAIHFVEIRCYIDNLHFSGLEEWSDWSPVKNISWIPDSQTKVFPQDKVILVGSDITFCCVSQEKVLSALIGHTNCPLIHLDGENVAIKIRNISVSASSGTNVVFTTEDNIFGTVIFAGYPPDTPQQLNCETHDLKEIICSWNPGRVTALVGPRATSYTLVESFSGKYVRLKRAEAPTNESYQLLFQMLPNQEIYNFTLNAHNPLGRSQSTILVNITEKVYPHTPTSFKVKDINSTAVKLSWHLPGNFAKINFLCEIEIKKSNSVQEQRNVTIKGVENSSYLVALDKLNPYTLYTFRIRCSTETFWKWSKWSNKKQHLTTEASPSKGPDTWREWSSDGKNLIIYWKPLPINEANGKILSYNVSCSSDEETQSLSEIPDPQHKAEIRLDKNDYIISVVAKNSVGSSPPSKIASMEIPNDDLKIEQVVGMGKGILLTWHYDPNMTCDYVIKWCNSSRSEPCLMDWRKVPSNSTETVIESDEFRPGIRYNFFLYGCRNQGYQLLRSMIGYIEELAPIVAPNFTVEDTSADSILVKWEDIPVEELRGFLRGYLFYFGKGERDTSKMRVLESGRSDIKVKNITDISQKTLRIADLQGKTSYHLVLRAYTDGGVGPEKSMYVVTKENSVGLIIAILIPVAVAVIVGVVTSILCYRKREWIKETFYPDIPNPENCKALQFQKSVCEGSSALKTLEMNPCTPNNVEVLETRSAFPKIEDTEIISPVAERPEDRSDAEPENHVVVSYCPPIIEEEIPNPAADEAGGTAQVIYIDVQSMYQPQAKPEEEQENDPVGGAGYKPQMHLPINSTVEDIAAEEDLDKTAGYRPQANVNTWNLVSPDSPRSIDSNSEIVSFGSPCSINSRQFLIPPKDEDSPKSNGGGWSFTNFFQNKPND
Protocol: On day 0, HepG2 were seeded at 7.5 × 10^4 cells/well in a 24-well plate and maintained at 37°C and 5% CO2 in E-MEM supplemented with 10% FBS, 1% glutamine, and 1% penicillin/streptomycin. On day 1, cells were transiently transfected with the reporter plasmid pGL4.47[luc2P/SIE/Hygro] (200 ng) (CAT#: E4041 Promega, Madison, WI, USA), a vector encoding the hLIFR (CAT# RC226327) (100 ng) and CD130 (IL6ST) (100 ng) (CAT#: RC215123, OriGene Technologies, Inc. Rockville, MD, USA), and finally a vector encoding the human RENILLA luciferase gene (pGL4.70) (100 ng) (Promega, Madison, WI, USA). On day 2, cells were exposed to the cytokine LIF (10 ng/mL) alone or in combination with BAR502 (from 0.1 to 20 μM). […] For FXR mediated transactivation, HepG2 cells were plated at 7.5 × 10^4 cells/well in a 24 well plate. Cells were transfected with 200 ng of the reporter vector p(hsp27)-TK-LUC containing a FXR response element (IR1) cloned from the promoter of heat shock protein 27 (hsp27), 100 ng of pSG5-FXR, 100 ng of pSG5-RXR, and 100 ng of pGL4.70 (Promega), a vector encoding the human Renilla gene. To perform STAT3 transactivation, HepG2 were seeded at 7.5× 10^4 cells/well in a 24-well plate. On the day-1, cells were transiently transfected with 200 ng of the reporter plasmid pGL4.47[luc2P/SIE/Hygro] […] Luminescence was measured using a Glomax 20/20 luminometer (Promega, Madison, WI, USA). […]

[2] = system: MIA PaCa-2 cells; test: Annexin V flow cytometry (apoptosis); format: cell-based, human; settings: BAR502 10-20 µM + LIF 10 ng/mL; p<0.05
Protocol: MIA-PaCa2 cells were seeded in 6-well tissue culture plate (cell density 700 × 10^3/well) and cultured as specified above. Cells were serum-starved for 8 h and then incubated with LIF (10 ng/mL) alone or plus BAR502 (10, 20 µM) or a vehicle for 24 h. The intracellular flow cytometry staining for Ki-67 was performed using the following reagents: Ki-67 Monoclonal Antibody (SolA15), Alexa Fluor™ 488, (eBioscience™, San Diego, California, USA) and 7-AAD to characterize the cell cycle phases G0-G1 and S-G2-M. Before intracellular IC-FACS, staining cells were fixed for 30 min in the dark using IC Fixation buffer (eBioscience™) and then permeabilized using Permeabilization buffer (10X) (eBioscience™). The staining for Annexin V was performed using the Annexin V Antibody (A13199, Thermofisher Scientific, Waltham, MA, USA) to evaluate the apoptosis rate. Briefly, 5 μL of Annexin V Antibody was added to each 100 μL of cell suspension, and cells were incubated the at room temperature for 15 min. Flow cytometry analyses were carried out using a 3-laser standard configuration ATTUNE NxT (LIFe Technologies, Carlsbad, CA, USA). Data were analyzed using FlowJo software (TreeStar) and the gates set using a fluorescence minus-one (FMO) control strategy. […] The channel in which the conjugated Ab is missing is the one for which the fluorescence minus one provides a gating control.

Question: Which IC50 [1] does the source give for `CC[C@H]1[C@@H](O)C2C3CC[C@H]([C@H](C)CCO)[C@@]3(C)CCC2[C@@]2(C)CC[C@@H](O)C[C@@H]12` (some centres unmarked) [BAR502] here?
Answer: 2730 nM

Question: And the “effect on percentage of Annexin V+ cells” value [2]?
Answer: increased the percentage of Annexin V^+ cells
